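Cultured in 96-well plates, cells were exposed to test compound for 48 hours across five concentrations. Definition used: TGI = concentration required for complete inhibition of growth.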 Activity calls are given as the source filed them. Cut-off read from the data, not from the text of the source: active = GI50 below about 0.43 µM; inactive = the rest.
Legend:
Experiment in all cases: growth of human tumour cells (NCI), 48 h
OVCAR-3 ovarian = tested on: OVCAR-3 ovarian
K-562 leukemia = tested on: K-562 leukemia
LOX IMVI melanoma = tested on: LOX IMVI melanoma
HOP-62 NSCLC = tested on: HOP-62 NSCLC
UO-31 renal = tested on: UO-31 renal
EKVX NSCLC = tested on: EKVX NSCLC
MOLT-4 leukemia = tested on: MOLT-4 leukemia
OVCAR-5 ovarian = tested on: OVCAR-5 ovarian
SNB-19 CNS = tested on: SNB-19 CNS
HS 578T breast = tested on: HS 578T breast
IGROV1 ovarian = tested on: IGROV1 ovarian
HCT-15 colon = tested on: HCT-15 colon
CAKI-1 renal = tested on: CAKI-1 renal
HL-60(TB) leukemia = tested on: HL-60(TB) leukemia
RPMI-8226 leukemia = tested on: RPMI-8226 leukemia
HCC-2998 colon = tested on: HCC-2998 colon
A549 NSCLC = tested on: A549 NSCLC
OVCAR-8 ovarian = tested on: OVCAR-8 ovarian
SR leukemia = tested on: SR leukemia
BT-549 breast = tested on: BT-549 breast
SF-539 CNS = tested on: SF-539 CNS
KM12 colon = tested on: KM12 colon
A498 renal = tested on: A498 renal
NCI-H23 lung = tested on: NCI-H23 lung
HOP-92 NSCLC = tested on: HOP-92 NSCLC
T-47D breast = tested on: T-47D breast
CCRF-CEM leukemia = tested on: CCRF-CEM leukemia
NCI-H226 lung = tested on: NCI-H226 lung
NCI-H522 lung = tested on: NCI-H522 lung
OVCAR-4 ovarian = tested on: OVCAR-4 ovarian
MDA-MB-435 = tested on: MDA-MB-435
NCI/ADR-RES ovarian = tested on: NCI/ADR-RES ovarian
UACC-257 melanoma = tested on: UACC-257 melanoma
HT29 colon = tested on: HT29 colon
SF-268 CNS = tested on: SF-268 CNS
SN12C renal = tested on: SN12C renal
TK-10 renal = tested on: TK-10 renal
SNB-75 CNS = tested on: SNB-75 CNS
PC-3 prostate = tested on: PC-3 prostate
MCF7 breast = tested on: MCF7 breast
COLO 205 colon = tested on: COLO 205 colon
NCI-H460 lung = tested on: NCI-H460 lung
SK-OV-3 ovarian = tested on: SK-OV-3 ovarian
HCT-116 colon = tested on: HCT-116 colon
786-0 renal = tested on: 786-0 renal
MALME-3M melanoma = tested on: MALME-3M melanoma
UACC-62 melanoma = tested on: UACC-62 melanoma
SF-295 CNS = tested on: SF-295 CNS
MDA-MB-231 breast = tested on: MDA-MB-231 breast
ACHN renal = tested on: ACHN renal
MDA-N = tested on: MDA-N
SW-620 colon = tested on: SW-620 colon
M14 melanoma = tested on: M14 melanoma
DU-145 prostate = tested on: DU-145 prostate
U251 CNS = tested on: U251 CNS
SK-MEL-5 melanoma = tested on: SK-MEL-5 melanoma
SK-MEL-2 melanoma = tested on: SK-MEL-2 melanoma
SK-MEL-28 melanoma = tested on: SK-MEL-28 melanoma

Measured: TGI

CN1CCN(CC(=O)N2CCCn3c2nc2ccccc2c3=O)CC1
not listed: SK-MEL-28 melanoma
> 100 µM: all other assays above

O=c1cc(-c2ccc(O)c(O)c2-c2c(O)cc(O)c3c(=O)cc(-c4ccc(O)c(O)c4)oc23)oc2cc(O)cc(O)c12
not listed: NCI-H460 lung
inactive: all other assays above

Reference: PubChem BioAssay (NCI)
